Assay results as given in BindingDB's records for doi:10.1111/cbdd.12587 (Jiangnan University, 2015).

The compounds below were run against T1, Tyrosine-protein phosphatase non-receptor type 1 (Homo sapiens, UniProt P18031) (assay: Colorimetric Assay). Details: pH 6.5.
T1 sequence (P18031 whole entry): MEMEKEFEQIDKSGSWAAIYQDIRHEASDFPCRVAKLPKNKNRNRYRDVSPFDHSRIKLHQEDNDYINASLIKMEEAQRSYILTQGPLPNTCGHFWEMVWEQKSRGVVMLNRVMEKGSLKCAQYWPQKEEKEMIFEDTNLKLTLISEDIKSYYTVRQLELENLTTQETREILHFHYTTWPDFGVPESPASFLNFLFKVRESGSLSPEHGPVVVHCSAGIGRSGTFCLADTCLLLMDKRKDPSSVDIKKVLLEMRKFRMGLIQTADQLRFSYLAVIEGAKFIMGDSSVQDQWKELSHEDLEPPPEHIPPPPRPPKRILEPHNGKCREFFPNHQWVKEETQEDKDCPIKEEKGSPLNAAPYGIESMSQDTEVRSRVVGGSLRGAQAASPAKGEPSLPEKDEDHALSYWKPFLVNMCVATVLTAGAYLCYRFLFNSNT
Protocol: Briefly, the tested compounds were solubilized in DMSO and serially diluted into concentrations for the inhibitory test. The assays were carried out in a final volume of 100 µL containing 50 mmol/L MOPS, pH 6.5, 2 mmol/L pNPP, 21 nmol/L GST-PTP1B or GST-TCPTP, and 2% DMSO, and the catalysis of pNPP was continuously monitored on a SpectraMax 340 microplate reader at 405 nm for 3 min at 30 °C
With `O=C(c1ccc(-c2ccc(C(=O)N3CCC4(CC3)CC(c3ccccc3F)=NO4)cc2)cc1)N1CCC2(CC1)CC(c1ccccc1F)=NO2` [Biphenyl-4,4'-diylbis((3-(2-fluorophenyl)-1-oxa-2,8-diazaspiro[4.5]dec-2-en-8-yl)methanone) (6g)] the IC50 was 4.96 µM.
For `O=C(c1ccc(-c2ccc(C(=O)N3CCC4(CC3)CC(c3cccc(F)c3)=NO4)cc2)cc1)N1CCC2(CC1)CC(c1cccc(F)c1)=NO2` [Biphenyl-4,4'-diylbis((3-(3-fluorophenyl)-1-oxa-2,8-diazaspiro[4.5]dec-2-en-8-yl)methanone) (6h)], the IC50 was 5.33 µM.
With `O=C(c1ccc(-c2ccc(C(=O)N3CCC4(CC3)CC(c3ccccc3)=NO4)cc2)cc1)N1CCC2(CC1)CC(c1ccccc1)=NO2` [Biphenyl-4,4'-diylbis((3-phenyl-1-oxa-2,8-diazaspiro[4.5]dec-2-en-8-yl)methanone) (6f)] the IC50 was 2.87 µM.
